From ChEMBL document CHEMBL2417438, “Preparation and antitrypanosomal activity of secochiliolide acid derivatives” (Bioorg Med Chem Lett, 2013) come the findings set out here.

The structures appear in SMILES notation. Converted amounts (≈) assume the structure as drawn. The source made the active and inactive calls. The calls are words filed in the database; no cut-off is given here.

The test system of the first test is Trypanosoma cruzi. Put plainly: Antiparasitic activity against epimastigotes of Trypanosoma cruzi assessed as inhibition of parasite proliferation at 1 to 10 ug/ml.
Conditions: not given
Format: functional, organism-based.
For `CC(C)=C1CC[C@@H](C)[C@]2(C[C@@H](c3ccoc3)OC2=O)[C@H]1CCC(=O)O`, the inhibition result is “Active”.

A further test has as its system Trypanosoma cruzi. Put plainly: Antiparasitic activity against epimastigotes of Trypanosoma cruzi assessed as inhibition of parasite proliferation. It is filed as functional, organism-based.
Conditions: not given
For orientation: IC50 means the concentration needed to halve the response being measured. Regarding `COC(=O)CC[C@@H]1[C@@]2(C[C@@H](c3ccoc3)OC2=O)[C@H](C)CC[C@@]12OC2(C)C`, the IC50 entry is given as “Not Active”. On the same count and under the same terms, for `CC(C)=C1CC[C@@H](C)[C@]2(C[C@@H](c3ccoc3)OC2=O)[C@H]1CCC(=O)OC(C)(C)C` the value was “Not Active”; for `CC(C)=C1CC[C@@H](C)[C@]2(C[C@@H](c3ccoc3)OC2=O)[C@H]1CCN=C=O`, “Not Active”.

The same test, now with this note: Trypanosoma cruzi; read-out: IC50.
With `CC(C)=C1CC[C@@H](C)[C@]2(C[C@@H](c3ccoc3)OC2=O)[C@H]1CCC(=O)O`, the IC50 was found to be 2 µg/mL (≈ 5.77 µM).

For the molecule `CC(C)=C1CC[C@@H](C)[C@]2(C[C@@H](c3ccoc3)OC2=O)[C@H]1CCC1=CC(=O)C=CC1=O`, the IC50 was found to be 2 µg/mL (≈ 4.9 µM). Still for that read-out and setting: under `CC(C)=C1CC[C@@H](C)[C@]2(C[C@@H](c3ccoc3)OC2=O)[C@H]1CCc1cc(O)ccc1O` stands 7 µg/mL (≈ 17.1 µM). On the same count and under the same terms, for `CC(C)=C1CC[C@@H](C)[C@]2(C[C@@H](c3ccoc3)OC2=O)[C@H]1CCNC(=O)OC(C)(C)C` the value was 2 µg/mL (≈ 4.79 µM); for `CC(C)=C1CC[C@@H](C)[C@]2(C[C@@H](c3ccoc3)OC2=O)[C@H]1CCNC(=O)N=[N+]=[N-]`, 4 µg/mL (≈ 10.4 µM); for `CC(C)=C1CC[C@@H](C)[C@]2(C[C@@H](c3ccoc3)OC2=O)[C@H]1CCNC(=O)NCC[C@H]1C(=C(C)C)CC[C@@H](C)[C@]12C[C@@H](c1ccoc1)OC2=O`, 5 µg/mL (≈ 7.57 µM). Still for that read-out and setting: for `C=C(C)[C@]12CC[C@@H](C)[C@]3(C[C@@H](c4ccoc4)OC3=O)[C@H]1CCC(=O)O2` the value was 5 µg/mL (≈ 14.5 µM); for `O=C(Cn1ccnc1[N+](=O)[O-])NCc1ccccc1` [BENZNIDAZOLE], 2.5 µg/mL (≈ 9.61 µM).
